Reference: PubChem BioAssay (NCI)
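Compound exposure: 48 hours, 5 concentrations, 96-well plates. The concentration for 50% growth inhibition is given as GI50. Definition used: TGI = concentration required for complete inhibition of growth.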

Columns and labels:
Test in all cases: DTP human tumour cell line panel, 48 h
[1] = test system: A498 renal
[2] = test system: HCC-2998 colon
[3] = test system: HCT-15 colon
[4] = test system: M14 melanoma
[5] = test system: MOLT-4 leukemia
[6] = test system: NCI-H226 lung
[7] = test system: SK-MEL-2 melanoma
[8] = test system: SW-620 colon
[9] = test system: DLD-1 colon
[10] = test system: DMS 114 small cell lung
[11] = test system: DMS 273 small cell lung
[12] = test system: KM20L2 colon

| SMILES | GI50 [1] | TGI [1] | GI50 [2] | TGI [2] | GI50 [3] | TGI [3] | GI50 [4] | TGI [4] | GI50 [5] | TGI [5] | GI50 [6] | TGI [6] | GI50 [7] | TGI [7] | GI50 [8] | TGI [8] | TGI [9] | TGI [10] | TGI [11] | TGI [12] |
| --- | --- | --- | --- | --- | --- | --- | --- | --- | --- | --- | --- | --- | --- | --- | --- | --- | --- | --- | --- | --- |
| O=C(N[C@@H](Cc1coc2ccccc12)B(O)O)[C@@H]1C[C@H]2CC[C@@H]1O2 | 702 nM | 5.73 µM | 5.11 µM | 21.1 µM | 4.54 µM | 84.9 µM | 3.01 µM | 82.7 µM | 2960 nM | 48 µM | 1130 nM | 2.76 µM | 6.08 µM | > 100 µM | 3.3 µM | > 100 µM | – | – | – | – |
| COc1ccc2c(c1)c(-c1nc(-c3c[nH]c4ncccc34)cs1)cn2CCCCN1CCCCC1 | 1430 nM | 2.9 µM | 1.74 µM | 3.29 µM | – | – | – | – | – | – | – | – | 1.8 µM | 3.54 µM | – | – | – | – | – | – |
| CNC(C)C(O)c1ccc2oc3cc(=O)c4ccccc4c-3nc2c1 (stereo not drawn) | – | 50.6 µM | – | > 100 µM | – | > 100 µM | – | 16.1 µM | – | 54.8 µM | – | – | – | 64.2 µM | – | > 100 µM | – | – | – | – |
| Nc1nc(SCc2ccccc2Cl)c2[nH]cnc2n1 | – | 73.1 µM | – | > 100 µM | – | > 100 µM | – | > 100 µM | – | > 100 µM | – | – | – | > 100 µM | – | > 100 µM | > 100 µM | > 100 µM | > 100 µM | > 100 µM |
| C=CCCC1(C)CCCNC1=S (stereo not drawn) | – | > 100 µM | – | > 100 µM | – | > 100 µM | – | > 100 µM | – | > 100 µM | – | > 100 µM | – | > 100 µM | – | > 100 µM | > 100 µM | > 100 µM | > 100 µM | > 100 µM |
| CCOC(=O)c1sc2nc(SC)nc(Nc3ccc4c(c3)OCCO4)c2c1N | – | 27.4 µM | – | > 100 µM | – | – | – | 31.7 µM | – | > 100 µM | – | > 100 µM | – | 33.7 µM | – | > 100 µM | – | – | – | – |
| CCCO[C@@H]1[C@@H](OC(C)=O)[C@@H](OC(C)=O)C(C)(C)/C=C/[C@H](C)C(=O)[C@@]2(OC(C)=O)C[C@@](C)(OC(C)=O)[C@H](OC(C)=O)[C@@H]2[C@H]2OC(=O)CC[C@@]12OC(=O)c1ccccc1 | – | – | – | > 25 µM | – | > 25 µM | – | > 25 µM | – | > 25 µM | – | > 25 µM | – | > 25 µM | – | > 25 µM | – | – | – | – |
| O=C1c2ccccc2OCC12OC21C=CC(Cl)=CC1 (stereo not drawn) | – | 55 µM | – | 42.2 µM | – | 86.5 µM | – | > 100 µM | – | 23.5 µM | – | > 100 µM | – | 59.1 µM | – | > 100 µM | – | – | – | – |
| CCC(=O)OCN(C)c1nc(N(C)COC(=O)CC)nc(N(C)COC(=O)CC)n1 | – | > 100 µM | – | 68.6 µM | – | 56 µM | – | 77.3 µM | – | 82.9 µM | – | > 100 µM | – | 42 µM | – | > 100 µM | – | – | – | – |
| Cc1nc2ccc(S(=O)(=O)Nc3nccs3)cc2c(=O)n1NS(=O)(=O)c1nccs1 | – | > 100 µM | – | > 100 µM | – | > 100 µM | – | > 100 µM | – | > 100 µM | – | > 100 µM | – | > 100 µM | – | > 100 µM | – | – | – | – |
| CCCCC1C=Cn2c(=O)oc3c(OC(C)C)c(C)c(O)c1c32 (stereo not drawn) | – | 1.1 µM | – | 13.6 µM | – | 12.4 µM | – | 3.15 µM | – | 3.33 µM | – | 8.12 µM | – | 5.07 µM | – | 11.9 µM | – | – | – | – |
